Target: Ras-related C3 botulinum toxin substrate 3 (Homo sapiens) (UniProt P60763)
Assay: RAC3 binders by thermal stabilization, biophysical, recombinant human protein, DSF (AID 504)
Settings: SYPRO orange, at 10 µM, protein 2 µM, buffer 10 mM HEPES, pH 7.5, NaCl 150 mM, active compounds read high

Row | Compound | Tm shift
1 | N#CC(C(N)Sc1ccccc1N)C(C#N)C(N)Sc1ccccc1N (configuration not stated) | 2.4 °C
2 | N#C/C(=C1\Nc2ccccc2S1)c1ccnc(NCCc2cccnc2)n1 | 2.3 °C
